Measurements as given in patent US20230183292A1, “IMMUNOMODULATORS” (priority 2020, published 2023).
Like-named read-outs stand apart in the source and are kept apart here. Starred links: 1 amine or outer side, 2 acyl side, 3 side chain; linkers in the order of their positions; H or OH if unused. Positions of bridges follow the written chain, without caps; N, C: chain ends. Non-standard residues stand in square brackets, D forms with d. Residues, ends and D or L forms follow the SMILES beside them. *: point of attachment. X2 = C[C@H](CCC(=O)NCCCN(CCCCNC(=O)CC[C@@H](C)[C@@H]1CC[C@H]2[C@@H]3[C@H](O)C[C@@H]4C[C@H](O)CC[C@]4(C)[C@H]3C[C@H](O)[C@@]21C)*)[C@H]1CC[C@H]2[C@@H]3[C@H](O)C[C@@H]4C[C@H](O)CC[C@]4(C)[C@H]3C[C@H](O)[C@]12C; X15 = C[C@H](CCC(=O)NCCCCNc1c(*)c(=O)c1=O)[C@H]1CC[C@H]2[C@@H]3[C@H](O)C[C@@H]4C[C@H](O)CC[C@]4(C)[C@H]3C[C@H](O)[C@]12C; X20 = CC(C)CCC[C@@H](C)[C@H]1CC[C@H]2[C@@H]3CC[C@H]4C[C@H](NC[C@H](N[*:1])C(=O)[*:2])CC[C@]4(C)[C@H]3CC[C@]12C; Cholyl = C[C@H](CCC(=O)*)[C@H]1CC[C@H]2[C@@H]3[C@H](O)C[C@@H]4C[C@H](O)CC[C@]4(C)[C@H]3C[C@H](O)[C@]12C; Trp(1-CH2CO) = O=C([C@H](Cc1cn(CC(=O)[*:3])c2ccccc12)N[*:1])[*:2]; Trp(1-CH2COOH) = N[C@@H](Cc1cn(CC(=O)O)c2ccccc12)C(=O)O; Hyp = O=C(O)[C@@H]1C[C@@H](O)CN1; X12 = O=c1c([*:1])c([*:2])c1=O; NMeNle = CCCC[C@H](NC)C(=O)O; NMeA = CN[C@@H](C)C(=O)O; Dab = NCC[C@H](N)C(=O)O; Dap = NC[C@H](N)C(=O)O

Target: T1, PD-1/PD-L1 (Homo sapiens, UniProt Q9NZQ7)
T1 construct: TVMV protease site (C); made in house; host or cells: HEK293T cells
T1 sequence (Q9NZQ7 18-239): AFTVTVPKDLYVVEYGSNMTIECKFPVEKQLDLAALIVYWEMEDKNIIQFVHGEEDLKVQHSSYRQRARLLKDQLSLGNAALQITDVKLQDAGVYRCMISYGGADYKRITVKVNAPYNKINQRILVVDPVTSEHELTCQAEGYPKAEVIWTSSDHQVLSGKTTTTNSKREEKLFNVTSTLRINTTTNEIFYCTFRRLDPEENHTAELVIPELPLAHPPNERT
Assay: PD-1/PD-L1 Homogenous Time-Resolved Fluorescence (HTRF) binding assay
Details: PD-1-Ig 20 nM
How it was run: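 Inhibitors pre-incubated 15 min with PD-L1-His (10 nM final) in dPBS, 0.1% BSA, 0.05% Tween-20, then 15 min with PD-1-Ig (20 nM final). Eu-cryptate anti-Ig (1 nM) and APC anti-His (20 nM) added, 30 min equilibration; HTRF 665/620 nm ratio. Human ECD proteins from HEK293T.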

[1] = PD-L1-His 10 nM, read-out: HTRF IC50

| Structure (SMILES) | IC50 (HTRF IC50, PD-L1-His 10 nM) [nM] | IC50 [1] [nM] |
| --- | --- | --- |
| CCCC[C@H]1C(=O)N(C)[C@@H](CCCC)C(=O)N[C@@H](CC(C)C)C(=O)N[C@H](C(=O)NCC(N)=O)CSCC(=O)N[C@@H](Cc2ccc(O)cc2)C(=O)N(C)[C@@H](C)C(=O)N[C@@H](CC(N)=O)C(=O)N2CCC[C@H]2C(=O)N[C@@H](CN[C@@H]2CC[C@@]3(C)[C@@H](CC[C@@H]4[C@@H]3CC[C@]3(C)[C@@H]([C@H](C)CCCC(C)C)CC[C@@H]43)C2)C(=O)N[C@@H](CC(C)C)C(=O)N2C[C@H](O)C[C@H]2C(=O)N[C@@H](Cc2c[nH]c3ccccc23)C(=O)N[C@@H](CCN)C(=O)N[C@@H](Cc2cn(CC(=O)O)c3ccccc23)C(=O)N1C [Example 3009] ({CH2CO}-Y[NMeA]NP[X20]L[Hyp]W[Dab][Trp(1-CH2COOH)][NMeNle][NMeNle]LCG-NH2; thioether N-14) | 130 | – |
| CCCC[C@H]1C(=O)N(C)[C@@H](CCCC)C(=O)N[C@@H](CC(C)C)C(=O)N[C@H](C(=O)NCC(N)=O)CSCC(=O)N[C@@H](Cc2ccc(O)cc2)C(=O)N(C)[C@@H](C)C(=O)N[C@@H](CC(N)=O)C(=O)N2CCC[C@H]2C(=O)N[C@@H](CNc2c(NCCCCNC(=O)CC[C@@H](C)[C@H]3CC[C@H]4[C@@H]5[C@H](O)C[C@@H]6C[C@H](O)CC[C@]6(C)[C@H]5C[C@H](O)[C@]34C)c(=O)c2=O)C(=O)N[C@@H](CC(C)C)C(=O)N2C[C@H](O)C[C@H]2C(=O)N[C@@H](Cc2c[nH]c3ccccc23)C(=O)N[C@@H](CCNc2c(NCCCCNC(=O)CC[C@@H](C)[C@H]3CC[C@H]4[C@@H]5[C@H](O)C[C@@H]6C[C@H](O)CC[C@]6(C)[C@H]5C[C@H](O)[C@]34C)c(=O)c2=O)C(=O)N[C@@H](Cc2cn(CC(=O)O)c3ccccc23)C(=O)N1C [Example 5001] ({CH2CO}-Y[NMeA]NP[Dap](X15)L[Hyp]W[Dab](X15)[Trp(1-CH2COOH)][NMeNle][NMeNle]LCG-NH2; thioether N-14; N-terminus assumed) | – | 0.7 |
| CCCC[C@H]1C(=O)N(C)[C@@H](CCCC)C(=O)N[C@@H](CC(C)C)C(=O)N[C@H](C(=O)NCC(N)=O)CSCC(=O)N[C@@H](Cc2ccc(O)cc2)C(=O)N(C)[C@@H](C)C(=O)N[C@@H](CC(N)=O)C(=O)N2CCC[C@H]2C(=O)N[C@H]2CNc3c(c(=O)c3=O)NCC[C@H](NC(=O)[C@H](Cc3c[nH]c4ccccc34)NC(=O)[C@@H]3C[C@@H](O)CN3C(=O)[C@H](CC(C)C)NC2=O)C(=O)N[C@@H](Cc2cn(CC(=O)N(CCCCNC(=O)CC[C@@H](C)[C@@H]3CC[C@H]4[C@@H]5[C@H](O)C[C@@H]6C[C@H](O)CC[C@]6(C)[C@H]5C[C@H](O)[C@@]43C)CCCNC(=O)CC[C@@H](C)[C@H]3CC[C@H]4[C@@H]5[C@H](O)C[C@@H]6C[C@H](O)CC[C@]6(C)[C@H]5C[C@H](O)[C@]34C)c3ccccc23)C(=O)N1C [Example 6001] ({CH2CO}-Y[NMeA]NP[Dap]L[Hyp]W[Dab][Trp(1-CH2CO)](X2)[NMeNle][NMeNle]LCG-NH2; linker 5-9 via X12; thioether N-14) | – | 850 |
| CCCC[C@H]1C(=O)N(C)[C@@H](CCCC)C(=O)N[C@@H](CC(C)C)C(=O)N[C@H](C(=O)NCC(N)=O)CSCC(=O)N[C@@H](Cc2ccc(O)cc2)C(=O)N(C)[C@@H](C)C(=O)N[C@@H](CC(N)=O)C(=O)N2CCC[C@H]2C(=O)N[C@@H](CNC(=O)CC[C@@H](C)[C@H]2CC[C@H]3[C@@H]4[C@H](O)C[C@@H]5C[C@H](O)CC[C@]5(C)[C@H]4C[C@H](O)[C@]23C)C(=O)N[C@@H](CC(C)C)C(=O)N2C[C@H](O)C[C@H]2C(=O)N[C@@H](Cc2c[nH]c3ccccc23)C(=O)N[C@@H](CCNC(=O)CC[C@@H](C)[C@H]2CC[C@H]3[C@@H]4[C@H](O)C[C@@H]5C[C@H](O)CC[C@]5(C)[C@H]4C[C@H](O)[C@]23C)C(=O)N[C@@H](Cc2cn(CC(=O)N(CCCCNC(=O)CC[C@@H](C)[C@@H]3CC[C@H]4[C@@H]5[C@H](O)C[C@@H]6C[C@H](O)CC[C@]6(C)[C@H]5C[C@H](O)[C@@]43C)CCCNC(=O)CC[C@@H](C)[C@H]3CC[C@H]4[C@@H]5[C@H](O)C[C@@H]6C[C@H](O)CC[C@]6(C)[C@H]5C[C@H](O)[C@]34C)c3ccccc23)C(=O)N1C [Example 7001] ({CH2CO}-Y[NMeA]NP[Dap](Cholyl)L[Hyp]W[Dab](Cholyl)[Trp(1-CH2CO)](X2)[NMeNle][NMeNle]LCG-NH2; thioether N-14) | – | 2 |
